Holding throughout (format): cell-based
One test addresses T1, WEE1 (Homo sapiens, UniProt P30291+Q96SW2).
T1 construct: C-terminal ePL-tagged (DiscoverX, Fremont, CA) full-length WEE1 expression construct; expressed in transfected cells; host or cells: LentiX-HEK293T (Invitrogen), lentivirally transduced; the cells also over-express GSPT1-GN
The test is described as follows: WEE1-ePL degradation assay (293T-LentiX, InCELL Hunter luminescence, 4 hr). The settings on record: for 293T-LentiX WEE1-ePL Degradation 4 hr YMin (%): lower limit of fit, % of DMSO control signal remaining. In outline: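 LentiX-HEK293T cells expressing C-terminally ePL-tagged full-length WEE1 plus non-degradable GSPT1-GN (G575N, N-terminal 158 aa truncated). Treated 4 h at 37 °C with a 10-point, 3-fold series from 1 or 10 µM, then read by InCELL Hunter luminescence. EC50 from four-parameter logistic fit, Ymax set by DMSO control.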

For the next test, the system named is MKN45 cells. The test is described as follows: MKN45 cell proliferation assay (Cell-Titer-Glo, 120 hr). To be noted: for EC50: Homo sapiens, MKN-45, 120 h, read-out: MKN45 Cell Prolif. 120 hr EC50; for MKN45 Cell Prolif. 120 hr YMin (%): minimal percent of DMSO control observed. In outline:
(§1)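 MKN45 (400/well) and MDA-MB-231 (800/well) cells in RPMI with 10% FBS were exposed to 10-point half-log doses from 1 or 10 uM (0.1% DMSO) for 120 h at 37 °C. Viability was read by CellTiter-Glo luminescence. EC50 came from blank-subtracted, %DMSO four-parameter fits, with Ymin-obs as the lowest %DMSO observed.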

The subject of the next test is MDA-MB-231 cells. The test is described as follows: MDA-MB-231 cell proliferation assay (Cell-Titer-Glo, 120 hr). The settings on record: for EC50: Homo sapiens, MDA-MB-231, 120 h, read-out: MDA-MB 231 Cell Prolif. 120 hr EC50; for MDA-MB 231 Cell Prolif. 120 hr YMin (%): minimal percent of DMSO control observed. The method in brief: as §1

The values below come from patent US20250197374A1, “WEE1 DEGRADING COMPOUNDS AND USES THEREOF” (BRISTOL-MYERS SQUIBB COMPANY, priority 2023, published 2025).

T1 sequence (P30291 whole entry): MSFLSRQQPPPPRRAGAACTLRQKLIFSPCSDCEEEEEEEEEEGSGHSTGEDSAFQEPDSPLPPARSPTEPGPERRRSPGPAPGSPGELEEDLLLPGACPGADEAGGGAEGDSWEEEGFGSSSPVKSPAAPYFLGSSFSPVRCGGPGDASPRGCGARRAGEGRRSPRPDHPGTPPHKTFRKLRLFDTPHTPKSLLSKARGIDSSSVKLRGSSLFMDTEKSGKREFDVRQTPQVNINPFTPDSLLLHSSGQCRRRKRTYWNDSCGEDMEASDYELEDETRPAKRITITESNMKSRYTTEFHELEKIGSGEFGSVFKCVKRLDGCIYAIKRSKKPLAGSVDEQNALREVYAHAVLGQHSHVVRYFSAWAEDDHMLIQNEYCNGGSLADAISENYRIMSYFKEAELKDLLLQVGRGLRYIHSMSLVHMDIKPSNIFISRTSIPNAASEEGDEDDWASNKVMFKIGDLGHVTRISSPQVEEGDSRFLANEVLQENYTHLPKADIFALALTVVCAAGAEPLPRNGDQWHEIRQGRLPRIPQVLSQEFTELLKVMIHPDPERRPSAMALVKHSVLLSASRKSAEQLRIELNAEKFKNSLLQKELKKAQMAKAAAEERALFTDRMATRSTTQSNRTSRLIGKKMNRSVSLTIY
T1 sequence (Q96SW2 whole entry): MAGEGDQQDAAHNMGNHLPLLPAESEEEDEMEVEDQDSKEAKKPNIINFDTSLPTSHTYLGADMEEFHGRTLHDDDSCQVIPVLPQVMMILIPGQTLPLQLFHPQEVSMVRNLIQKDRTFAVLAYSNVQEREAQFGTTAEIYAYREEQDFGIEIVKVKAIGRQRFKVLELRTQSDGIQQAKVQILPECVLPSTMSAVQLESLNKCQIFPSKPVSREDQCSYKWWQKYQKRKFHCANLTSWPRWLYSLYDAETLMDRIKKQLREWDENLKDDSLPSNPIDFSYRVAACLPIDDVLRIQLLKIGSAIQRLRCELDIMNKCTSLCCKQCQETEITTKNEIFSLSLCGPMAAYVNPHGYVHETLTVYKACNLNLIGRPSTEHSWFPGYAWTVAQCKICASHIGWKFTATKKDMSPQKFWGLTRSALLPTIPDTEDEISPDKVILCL
T1 sequence (Q16531 whole entry partner): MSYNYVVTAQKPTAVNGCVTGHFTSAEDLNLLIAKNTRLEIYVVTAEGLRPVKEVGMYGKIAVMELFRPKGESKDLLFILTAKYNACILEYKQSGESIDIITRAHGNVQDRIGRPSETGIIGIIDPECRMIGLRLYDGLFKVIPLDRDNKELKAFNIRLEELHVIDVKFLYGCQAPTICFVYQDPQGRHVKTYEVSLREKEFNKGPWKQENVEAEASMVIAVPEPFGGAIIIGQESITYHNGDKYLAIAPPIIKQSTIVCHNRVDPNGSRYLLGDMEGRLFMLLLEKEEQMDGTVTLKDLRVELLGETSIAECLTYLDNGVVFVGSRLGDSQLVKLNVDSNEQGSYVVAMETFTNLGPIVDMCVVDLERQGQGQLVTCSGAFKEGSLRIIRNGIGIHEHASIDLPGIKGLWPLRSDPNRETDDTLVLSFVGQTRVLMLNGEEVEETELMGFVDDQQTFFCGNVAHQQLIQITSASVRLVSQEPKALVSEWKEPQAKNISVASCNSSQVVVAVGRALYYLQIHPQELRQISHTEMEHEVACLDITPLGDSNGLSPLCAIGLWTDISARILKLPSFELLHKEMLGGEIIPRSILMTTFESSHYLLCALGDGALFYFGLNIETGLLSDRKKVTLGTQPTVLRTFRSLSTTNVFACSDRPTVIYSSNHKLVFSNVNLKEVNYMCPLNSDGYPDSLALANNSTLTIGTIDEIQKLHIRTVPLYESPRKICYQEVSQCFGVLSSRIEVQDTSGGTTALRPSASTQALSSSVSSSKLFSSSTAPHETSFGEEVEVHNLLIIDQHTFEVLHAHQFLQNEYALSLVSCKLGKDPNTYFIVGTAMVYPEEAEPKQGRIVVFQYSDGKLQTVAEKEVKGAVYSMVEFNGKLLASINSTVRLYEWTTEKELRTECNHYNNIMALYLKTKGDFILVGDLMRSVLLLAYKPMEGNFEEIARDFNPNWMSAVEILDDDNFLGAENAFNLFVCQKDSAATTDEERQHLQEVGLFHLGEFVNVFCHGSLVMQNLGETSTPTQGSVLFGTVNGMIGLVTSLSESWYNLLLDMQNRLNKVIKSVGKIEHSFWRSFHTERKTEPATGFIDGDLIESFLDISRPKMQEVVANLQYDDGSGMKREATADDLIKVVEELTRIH

What is called EC50 is the concentration that produces a half-maximal response. Consider `COC[C@@H]1CN(Cc2cc(F)c3nc(N4CCN(C5COC5)CC4)ccc3c2)C[C@H]1Oc1ccc2c(c1)CN([C@H]1CCC(=O)NC1=O)C2=O` [Example 142, (3S)-3-(5-{[(3S,4S)-1-({8-fluoro-2-[4-(oxetan-3-yl)piperazin-1-yl]quinolin-6-yl}methyl)-4-(methoxymethyl)pyrrolidin-3-yl]oxy}-1-oxo-2,3-dihydro-1H-isoindol-2-yl)piperidine-2,6-dione], for which the “293T-LentiX WEE1-ePL Degradation 4 hr YMin (%)” value on WEE1 is reported as 19.9%. For the same molecule, in the test with MKN45 cells, the EC50 is 1 nM and the “MKN45 Cell Prolif. 120 hr YMin (%)” value stood at 7.1%. In addition, in the test with MDA-MB-231 cells, the EC50 is 24 nM and the “MDA-MB 231 Cell Prolif. 120 hr YMin (%)” value is 43.3%.

`COC[C@@H]1CN(Cc2cc(F)c3nc(C4CCN(C5COC5)CC4)ccc3c2)C[C@H]1Oc1ccc2c(c1)CN([C@H]1CCC(=O)NC1=O)C2=O` [Example 143, (3S)-3-(5-{[(3S,4S)-1-({8-fluoro-2-[1-(oxetan-3-yl)piperidin-4-yl]quinolin-6-yl}methyl)-4-(methoxymethyl)pyrrolidin-3-yl]oxy}-1-oxo-2,3-dihydro-1H-isoindol-2-yl)piperidine-2,6-dione]: the DC50 at WEE1 (LentiX-HEK293T cells expressing WEE1-ePL, 4 hr incubation, read-out: 293T-LentiX WEE1-ePL Degradation 4 hr EC50) was 1 nM. On WEE1, the “293T-LentiX WEE1-ePL Degradation 4 hr YMin (%)” value was determined as 27.3%. Further, in the test with MKN45 cells, the EC50 came out at 1 nM and the “MKN45 Cell Prolif. 120 hr YMin (%)” value turned out to be 8.9%. For the same molecule, in the test with MDA-MB-231 cells, the EC50 is 27 nM and the “MDA-MB 231 Cell Prolif. 120 hr YMin (%)” value is recorded as 35.5%.
